Where two headings read alike, the source gives them in different places. Each block holds one compound with its values, some of them ahead of it.
Legend:
[1] = tested on: Rat homologous PCA reaction; assay: Rat homologous PCA reaction; assay type: in vivo, Sprague-Dawley strain male rat; conditions: p.o., 1 hour before antigen
Experimental: The back of a Sprague-Dawley strain male rat (6 - 8 w) was depilated, and at one site on both sides thereof, 0.1 ml of a rat anti-ovalbumin IgE serum diluted with physiological saline was intradermally injected under ether anesthesia. After 48 hours, 25 mg/kg of ovalbumin, 25 mg/kg of Evans Blue were intravenously administered to induce the PCA reaction, and after 30 minutes, the skin was peeled off, dipped in a mixture of 0.3% Na₂SO₄·10H₂O/Acetate (3:7), and the dye amount infiltrated was quantitated by absorbance at 620 nm. The drug listed in Table 4 was suspended in 5% gum arabic solution and orally administered 1 hour before the antigen administration.

[2] = tested on: anti-TNP IgE antibody production; assay: IgE antibody production suppressive effect: anti-TNP IgE production by cultured spleen cells of TNP-KLH-immunized mouse; assay type: cell-based, BALB/C mouse
Experimental: An 8 weeks old BALB/C mouse (♀) was immunized by an intraperitoneal injection of 10 µg of TNP-KLH (trinitrophenyl-key hole limpet hemocyanine) and 2 mg of aluminum hydroxide gel, and after 3 weeks, 1 µg of TNP-KLH and 2 mg of aluminum hydroxide gel were boosted, and 4 weeks later, the spleen was enucleated.
The spleen cells (6 x 10⁶) were cultured together with 10 ng/ml of TNP-KLH, in the presence or non-presence of the compound of the present invention (10⁻⁵ to 10⁻⁷ M), in 1 ml of RPMI-1640 medium (containing 10% fetal bovine serum) for 2 days, followed by washing to remove the antigen and the drug, and the washed cells were resuspended in a fresh medium containing no antigen and further cultured for 5 days. All cultivations were performed under 5% CO₂ at 37°C. After completion of the culturing, the supernatant was recovered, and the concentration of anti-TNP IgE or anti-TNP IgG antibody was determined by an antigen and isotype specific immunoassay. […]
The values in the brackets ( ) indicate the values of the spontaneous IgE production amount observed when TNP-KLH was not added, and represent the IgE production dependency on the antigen.
The same experimental methods were used for the compounds shown below, and IgE antibody production suppressive effects were evaluated. […] (Exemplary compound VI - (1)): methyl (6,7-dimethoxy-2-naphthylthio)acetate (Exemplary compound V - (4)): N-(2-methoxycarbonylphenyl)-(6,7-dihydroxy-2-naphthylthio)acetamide (Exemplary compound V - (2)): N-tetrazolyl(6,7-dihydroxy-2-naphthylthio)acetamide Table 2

[3] = tested on: peritoneal mast cells of rat; assay: Histamine release from peritoneal mast cells induced by Compound 48/80 (non-allergic release); assay type: cell-based, Sprague-Dawley strain male rat; conditions: for inhibition at 10 µM: Rattus norvegicus, Mast cell, 10 min, read-out: Inhibitory ratio (%) histamine release
Experimental: (§1) To a Sprague-Dawley strain male rat (10 weeks or older) was intraperitoneally administered, under ether anesthesia, a diluted rat anti-DNP-As IgE serum at 2 ml/kg. After 16 hours, cells were recovered by washing intraperitoneally with a Tyrode solution containing 0.5% heparin (Ca⁺⁺, Mg⁺⁺, free). Mast cells (5 x 10⁴) separated by overlying in the 30% Ficoll/Tyrode solution and centrifugation were reliberated into the Tyrode solution (Ca⁺⁺, Mg⁺⁺) and incubated with the addition of the drug solution shown in Table 3-1, for 10 minutes, and then DNP-As and phosphatidylserine were added to final concentrations of 20 µg/ml and 25 µg/ml, respectively, followed by incubation for 10 minutes. The reaction was stopped by ice-cooling, and the histamine release in the supernatant was determined by fluorophotometry. Regarding the non-allergy release, 5 x 10⁴ of mast cells were investigated by incubation with 0.5 µg/ml of Compound 48/80 for 10 minutes, after the addition of the drug solution shown in Table 3-2.

[4] = target: T1, Lipoxygenase (Homo sapiens, UniProt P09917); assay: Lipoxygenase inhibitory activity evaluation: LTB4 and 5-HETE production in A23187-stimulated whole blood; assay type: cell-based, healthy man; conditions: 10⁻⁵ M, A23187 25 µM; for Amount of LTB₄ produced: no addition 125; for Amount of 5-HETE produced: no addition 130
T1 construct: heparin-treated vein blood of a healthy person; from tissue; host or cells: human heparinised venous whole blood (leukocytes)
T1 sequence (P09917 1-674): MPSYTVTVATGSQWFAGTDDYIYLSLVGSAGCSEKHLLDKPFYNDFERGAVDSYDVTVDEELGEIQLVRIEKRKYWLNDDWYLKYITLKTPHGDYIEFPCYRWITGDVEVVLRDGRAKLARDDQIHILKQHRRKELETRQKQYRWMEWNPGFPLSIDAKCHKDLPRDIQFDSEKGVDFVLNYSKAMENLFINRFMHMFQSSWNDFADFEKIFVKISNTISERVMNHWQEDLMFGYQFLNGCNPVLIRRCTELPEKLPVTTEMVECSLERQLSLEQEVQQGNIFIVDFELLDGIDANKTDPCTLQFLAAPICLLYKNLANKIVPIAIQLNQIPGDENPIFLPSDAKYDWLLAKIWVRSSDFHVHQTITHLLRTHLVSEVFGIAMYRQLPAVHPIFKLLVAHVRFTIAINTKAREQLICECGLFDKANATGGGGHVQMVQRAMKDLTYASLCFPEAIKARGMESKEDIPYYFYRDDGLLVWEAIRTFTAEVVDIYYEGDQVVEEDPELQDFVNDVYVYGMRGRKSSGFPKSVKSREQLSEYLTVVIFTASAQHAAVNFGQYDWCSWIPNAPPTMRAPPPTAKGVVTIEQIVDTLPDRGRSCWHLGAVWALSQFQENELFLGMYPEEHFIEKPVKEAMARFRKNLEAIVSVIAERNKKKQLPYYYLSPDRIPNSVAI
Experimental: To 1 ml of heparin-treated vein blood of a healthy person without an administration of drugs was added 1 µl of a DMSO solution of the drug test sample listed in Table 5 (final 10⁻⁵ M), and after treatment at 37°C for 5 minutes, 5 µl of a DMSO solution of A23187 was added (final 25 µM) and the treatment carried out at 37°C for 15 minutes, followed by ice-cooling. After the addition of 10 µl of a DMSO solution of 100 ng of 15-HETE as the internal standard substance for quantitation, 0.8 ml of acetonitrile was added, and the precipitates formed were removed by centrifugation. Then, LTB₄ and 5-HETE in the supernatant were subjected to HPLC separation and quantitation (ref. F.J. Sweeney, et al., Prostaglandins Leukotrienes & Med., 28, 73 (1987)).

[5] = tested on: peritoneal mast cells of rat; assay: Histamine release from IgE-sensitized peritoneal mast cells, DNP-As antigen (allergic release); assay type: cell-based, Sprague-Dawley strain male rat
Experimental: as §1, with “fluorophotometry.” for “fluorophotometry. Regarding the non-allergy release, 5 x 10⁴ of mast cells were investigated by incubation with 0.5 µg/ml of Compound 48/80 for 10 minutes, after the addition of the drug solution shown in Table 3-2.”

[6] = Experiment 1, 10⁻⁵ M, Compound 48/80 0.5 µg/ml
[7] = Experiment 2, 10⁻⁵ M, Compound 48/80 0.5 µg/ml

Compound: O=C(CSc1ccc2cc(O)c(O)cc2c1)Nc1nnn[nH]1 [Exemplary compound V-(2), N-5-tetrazolyl(6,7-dihydroxy-2-naphthylthio)-acetamide]
Suppressive ratio (%) Experiment 1 ([1]; 25 mg/kg): -0.3%
Suppressive ratio (IgE antibody production) ([2]; 10⁻⁷ M): 11%
inhibition at 10 µM [3, 6]: 2.2%

Compound: COC(=O)CSc1ccc2cc(OC(=O)OC(C)C)c(OC(=O)OC(C)C)cc2c1 [Exemplary compound VI-(4), Methyl (6,7-diisopropoxycarbonyloxy-2-naphthylthio)acetate]
inhibition at 10 µM [3, 7]: 17.8%

Compound: O=C(CSc1ccc2cc(O)c(O)cc2c1)Nc1ccccc1-c1nnn[nH]1 [Exemplary compound V-(5), N-[2-(5-tetrazolyl)phenyl](6,7-dihydroxy-2-naphthylthio)acetamide]
Suppressive ratio (%) Experiment 2 ([1]; 25 mg/kg): 16.5%
inhibition at 10 µM [3, 6]: 28.1%

Compound: COc1ccc(/C=C/C(=O)Nc2ccccc2C(=O)O)cc1OC [Tranilast, reference compound]
Suppressive ratio (%) Experiment 1 ([1]; 200 mg/kg): 24.2%
Suppressive ratio (%) Experiment 2 ([1]; 200 mg/kg): 26.9%
inhibition at 10 µM [3, 6]: 24.4%

5-HETE (Inhibitory ratio %) [4]: 66%
LTB₄ (Inhibitory ratio %) [4]: 76%
Amount of LTB₄ produced [4]: 30 ng/ml/plasma
Amount of 5-HETE produced [4]: 45 ng/ml/plasma
Compound: Oc1cc2ccc(SCc3ccccc3)cc2cc1O [II-(1)]

Compound: O=C(CSc1ccc2cc(O)c(O)cc2c1)NCCCCN1CCN(C(c2ccc(F)cc2)c2ccc(F)cc2)CC1 [Exemplary compound V-(6), 1-[4-[(6,7-dihydroxy-2-naphthylthio)acetylamino]-butyl]-4-[bis(4-fluorophenyl)methyl]piperazine]
Suppressive ratio (%) Experiment 2 ([1]; 25 mg/kg): 15.9%
inhibition at 10 µM [3, 6]: 5.9%

Compound: COC(=O)CSc1ccc2cc(OC(=O)OC)c(OC(=O)OC)cc2c1 [Exemplary compound VI-(3), Methyl (6,7-dimethoxycarbonyloxy-2-naphthylthio)acetate]
inhibition at 10 µM [3, 7]: 7.5%

Compound: O=C(CSc1ccc2cc(O)c(O)cc2c1)Nc1ccccc1C(=O)O [Exemplary compound V-(3), N-(2-carboxyphenyl)(6,7-dihydroxy-2-naphthylthio)acetamide]
Suppressive ratio (%) Experiment 1 ([1]; 25 mg/kg): -18.0%
inhibition at 10 µM [3, 6]: 1.3%

Compound: COC(=O)CSc1ccc2cc(OC(C)=O)c(OC(C)=O)cc2c1 [Exemplary compound VI-(2), Methyl (6,7-diacetoxy-2-naphthyithio)acetate]
Inhibitory ratio (%) histamine release [3, 7]: 2.6%

Compound: COC(=O)CSc1ccc2cc(OC)c(OC)cc2c1 [Exemplary compound VI-(1), Methyl (6,7-dimethoxy-2-naphthylthio)acetate]
Suppressive ratio (IgE antibody production) ([2]; 10⁻⁶ M): 69%
inhibition at 10 µM [3, 7]: 3.7%

5-HETE (Inhibitory ratio %) [4]: 69%
LTB₄ (Inhibitory ratio %) [4]: 72%
Amount of LTB₄ produced [4]: 35 ng/ml/plasma
Amount of 5-HETE produced [4]: 40 ng/ml/plasma
Compound: COC(=O)C(C)Sc1ccc2cc(O)c(O)cc2c1 (stereo not shown) [Exemplary compound VII-(1), Methyl 2-(6,7-dihydroxy-2-naphthylthio)-propionate]

Compound: COC(=O)c1ccccc1NC(=O)CSc1ccc2cc(O)c(O)cc2c1 [Exemplary compound V-(4), N-(2-methoxycarbonylphenyl)(6,7-dihydroxy-2-naphthylthio)acetamide]
Suppressive ratio (%) Experiment 1 ([1]; 25 mg/kg): 0%
Suppressive ratio (IgE antibody production) ([2]; 10⁻⁶ M): 7%
Suppressive ratio (IgE antibody production) ([2]; 10⁻⁷ M): 26%
inhibition at 10 µM [3, 6]: -0.8%

Compound: O=C(O)CSc1ccc2cc(O)c(O)cc2c1 [Exemplary compound IV-(2), (6,7-Dihydroxy-2-naphthylthio)acetic acid]
suppressive action against allergy histamine release (in words) [5]: suppressive actions
suppressive action against non-allergy histamine release (in words) [3]: weak suppressive actions

Reference: patent EP0419676B1, “THIONAPHTHALENE DERIVATIVES, METHOD OF PRODUCING THE SAME, AND ANTIALLERGIC AGENT CONTAINING THE SAME” (TEIJIN LIMITED, priority 1989, dated 1990)
